Assay results from patent publication US10947252B2, “Inhibitors of KEAP1-Nrf2 protein-protein interaction” (Janssen Pharmaceutica NV, priority 2018, dated 2021).

Experiments:
[1] = tested on: Glo-Response ARE-luc2P HEK293 cell line; assay: ARE luciferase reporter cell-based assay; conditions: Homo sapiens, HEK293, 24 h, average of results obtained;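 further: luciferase signal tracks Nrf2 activation of the ARE once compounds disrupt KEAP1-Nrf2 binding, read with One-Glo reagent, DMSO serving as low control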
[2] = target: Kelch domain of human KEAP1 (321-624 aa) (Homo sapiens (Human), UniProt Q14145); assay: KEAP1 KELCH ThermoFluor binding assay; conditions: KEAP Kelch […], 1,8-ANS, pH 7.0, average of results obtained, read-out: Tf Kd;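 further: Ligand-induced melting temperature shift of E. coli-expressed KEAP1 Kelch protein, Kd estimated from concentration-response curves of ΔTm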
Chain of Kelch domain of human KEAP1 (321-624 aa) (Q14145 321-624): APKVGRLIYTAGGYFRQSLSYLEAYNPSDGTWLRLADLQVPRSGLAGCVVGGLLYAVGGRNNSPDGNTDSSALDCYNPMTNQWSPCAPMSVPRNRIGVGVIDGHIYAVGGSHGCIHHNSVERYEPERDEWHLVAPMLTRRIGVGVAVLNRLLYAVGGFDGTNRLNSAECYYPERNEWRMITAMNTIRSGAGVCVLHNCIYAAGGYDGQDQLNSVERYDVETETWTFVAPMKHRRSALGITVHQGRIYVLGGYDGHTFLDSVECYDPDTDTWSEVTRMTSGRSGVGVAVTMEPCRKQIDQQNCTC

SMILES | EC50 [1] | Kd [2]
Cc1ccc(C(CC(=O)O)c2ccc3c(nnn3C3CC3)c2C)cc1CN1C[C@H]2CCCN2c2ncccc2S1(=O)=O (mixture of isomers) [Example 209, (R/S)-3-(1-Cyclopropyl-4-methyl-1H-benzo[d][1,2,3]triazol-5-yl)-3-(3-(((R)-5,5-dioxido-7a,8,9,10-tetrahydropyrido[2,3-f]pyrrolo[2,1-d][1,2,5]thiadiazepin-6(7H)-yl)methyl)-4-methylphenyl)propanoic Acid] | 8.8 nM | < 1 nM
Cc1ccc([C@H](c2ccn3c(C(F)(F)F)nnc3c2C)C(C)(C)C(=O)O)cc1CN1CC2(CC2)Oc2nc(OCCN3CCC(F)CC3)c(C)cc2S1(=O)=O (single isomer, unassigned) [Example 662, (*S)-3-(3-((7′-(2-(4-fluoropiperidin-1-yl)ethoxy)-8′-methyl-1′,1′-dioxidospiro[cyclopropane-1,4′-pyrido[2,3-b][1,4,5]oxathiazepin]-2′(3′H)-yl)methyl)-4-methylphenyl)-2,2-dimethyl-3-(8-methyl-3-(trifluoromethyl)-[1,2,4]triazolo[4,3-a]pyridine-7-yl)propanoic Acid] | 308 nM | 568 nM
Cc1ccc([C@@H](CC(=O)O)c2ccn3c(C(F)F)nnc3c2C)cc1CN1C[C@@H]2CCCN2c2ncc(C#N)cc2S1(=O)=O (single isomer, unassigned) [Example 544, (*R)-3-(3-(((S)-3-Cyano-5,5-dioxido-7a,8,9,10-tetrahydropyrido[2,3-f]pyrrolo[2,1-d][1,2,5]thiadiazepin-6(7H)-yl)methyl)-4-methylphenyl)-3-(3-(difluoromethyl)-8-methyl-[1,2,4]triazolo[4,3-a]pyridin-7-yl)propanoic Acid] | 278 nM | < 1 nM
Cc1ccc(C(CC(=O)O)c2ccc3c(nnn3CC3CC3)c2C)cc1CN1C[C@@H]2CCCCN2c2ncccc2S1(=O)=O (mixture of isomers) [Example 231, (R/S)-3-(1-(Cyclopropylmethyl)-4-methyl-1H-benzo[d][1,2,3]triazol-5-yl)-3-(3-(((*S)-5,5-dioxido-7,7a,8,9,10,11-hexahydro-6H-dipyrido[2,1-d:2′,3′-f][1,2,5]thiadiazepin-6-yl)methyl)-4-methylphenyl)propanoic Acid] | 7 nM | < 1 nM
Cc1cnc2c(c1)S(=O)(=O)N(Cc1cc([C@@H](c3ccn4c(C(F)(F)F)nnc4c3C)C(C)(C)C(=O)O)cnc1C)CC1(CCOCC1)O2 (single isomer, unassigned) [Example 586, (*R)-2,2-Dimethyl-3-(8-methyl-3-(trifluoromethyl)-[1,2,4]triazolo[4,3-a]pyridin-7-yl)-3-(6-methyl-5-((8′-methyl-1′,1′-dioxido-2,3,5,6-tetrahydrospiro[pyran-4,4′-pyrido[2,3-b][1,4,5]oxathiazepin]-2′(3′H)-yl)methyl)pyridin-3-yl)propanoic Acid] | > 20000 nM | 6380 nM
Cc1ccc([C@H](CC(=O)O)c2ccn3c(C(F)(F)F)nnc3c2C)nc1CN1CC2(COC2)Oc2ncccc2S1(=O)=O (single isomer, unassigned) [Example 495, (*R)-3-(6-((1′,1′-Dioxidospiro[oxetane-3,4′-pyrido[2,3-b][1,4,5]oxathiazepin]-2′(3′H)-yl)methyl)-5-methylpyridin-2-yl)-3-(8-methyl-3-(trifluoromethyl)-[1,2,4]triazolo[4,3-a]pyridin-7-yl)propanoic Acid] | 2860 nM | < 1 nM
Cc1ccc([C@H](c2ccn3c(C(F)(F)F)nnc3c2C)C(C)(C)C(=O)O)cc1CN1CC2(CCOCC2)Oc2nc(OCCCOCCCO)ccc2S1(=O)=O (single isomer, unassigned) [Example 608, (*R)-3-(3-((7′-(3-(3-Hydroxypropoxy)propoxy)-1′,1′-dioxido-2,3,5,6-tetrahydrospiro[pyran-4,4′-pyrido[2,3-b][1,4,5]oxathiazepin]-2′(3′H)-yl)methyl)-4-methylphenyl)-2,2-dimethyl-3-(8-methyl-3-(trifluoromethyl)-[1,2,4]triazolo[4,3-a]pyridin-7-yl)propanoic Acid] | 9.12 nM | < 1 nM
CCc1nnc2c(C)c([C@H](CC(=O)O)c3ccc(C)c(CN4C[C@H]5CCCN5c5ncccc5S4(=O)=O)c3)ccn12 (single isomer, unassigned) [Example 283, (*R)-3-(3-(((R)-5,5-dioxido-7a,8,9,10-tetrahydropyrido[2,3-f]pyrrolo[2,1-d][1,2,5]thiadiazepin-6(7H)-yl)methyl)-4-methylphenyl)-3-(3-ethyl-8-methyl-[1,2,4]triazolo[4,3-a]pyridin-7-yl)propanoic Acid] | 4170 nM | < 1 nM
Cc1ccc([C@H](CC(=O)O)c2ccn3c(C(F)(F)F)nnc3c2C)nc1CN1C[C@@H]2CCCCN2c2ncc(F)cc2S1(=O)=O (single isomer, unassigned) [Example 498, (*R)-3-(6-(((*S)-3-Fluoro-5,5-dioxido-7,7a,8,9,10,11-hexahydro-6H-dipyrido[2,1-d:2′,3′-f][1,2,5]thiadiazepin-6-yl)methyl)-5-methylpyridin-2-yl)-3-(8-methyl-3-(trifluoromethyl)-[1,2,4]triazolo[4,3-a]pyridin-7-yl)propanoic Acid] | 14.7 nM | < 1 nM
Cc1cnc2c(c1)S(=O)(=O)N(Cc1cc([C@@H](CC(=O)O)c3ccn4c(C(F)(F)F)nnc4c3C)ccc1C#N)CC1(CC1)O2 (single isomer, unassigned) [Example 106, (*R)-3-(4-Cyano-3-((8′-methyl-1′,1′-dioxidospiro[cyclopropane-1,4′-pyrido[2,3-b][1,4,5]oxathiazepin]-2′(3′H)-yl)methyl)phenyl)-3-(8-methyl-3-(trifluoromethyl)-[1,2,4]trizolo[4,3-a]pyridine-7-yl)propanoic Acid] | > 20000 nM | 21 nM
Cc1cnc2c(c1)S(=O)(=O)N(Cc1cc([C@@H](c3ccn4c(C(F)F)nnc4c3C)C(C)(C)C(=O)O)ncc1C)CC1(CC1)O2 (single isomer, unassigned) [Example 332, (*S)-3-(3-(Difluoromethyl)-8-methyl-[1,2,4]triazolo[4,3-a]pyridin-7-yl)-2,2-dimethyl-3-(5-methyl-4-((8′-methyl-1′,1′-dioxidospiro[cyclopropane-1,4′-pyrido[2,3-b][1,4,5]oxathiazepin]-2′(3′H)-yl)methyl)pyridin-2-yl)propanoic acid] | 25.6 nM | < 1 nM
Cc1cnc2c(c1)S(=O)(=O)N(Cc1nc([C@H](CC(=O)O)c3ccn4c(C(F)(F)F)nnc4c3C)ccc1C)C[C@@H]1CCCCN21 (single isomer, unassigned) [Example 489, (*R)-3-(8-Methyl-3-(trifluoromethyl)-[1,2,4]triazolo[4,3-a]pyridin-7-yl)-3-(5-methyl-6-(((*S)-3-methyl-5,5-dioxido-7,7a,8,9,10,11-hexahydro-6H-dipyrido[2,1-d:2′,3′-f][1,2,5]thiadiazepin-6-yl)methyl)pyridin-2-yl)propanoic Acid] | 29.8 nM | < 1 nM
Cc1cnc2c(c1)S(=O)(=O)N(Cc1cc([C@H](c3ccn4c(C(F)(F)F)nnc4c3C)C(C)(C)C(=O)O)ccc1C)CC1(CNC1)O2 (single isomer, unassigned) [Example 343, (*R)-2,2-Dimethyl-3-(4-methyl-3-((8′-methyl-1′,1′-dioxidospiro[azetidine-3,4′-pyrido[2,3-b][1,4,5]oxathiazepin]-2′(3′H)-yl)methyl)phenyl)-3-(8-methyl-3-(trifluoromethyl)-[1,2,4]triazolo[4,3-a]pyridin-7-yl)propanoic Acid] | 1570 nM | 32200 nM
Cc1ccc([C@H](c2ccn3c(C(F)(F)F)nnc3c2C)C(C)(C)C(=O)O)cc1CN1CC2(CCOCC2)Oc2nc(NCCN3CCNCC3)c(C)cc2S1(=O)=O (single isomer, unassigned) [Example 366] | 407 nM | < 1 nM
CCn1nnc2c(C)c([C@@H](CC(=O)O)c3ccc(C)c(CN4C[C@H]5CCCN5c5ncccc5S4(=O)=O)c3)ccc21 (single isomer, unassigned) [Example 21, (*S)-3-(3-(((R)-5,5-Dioxido-7a,8,9,10-tetrahydropyrido[2,3-f]pyrrolo[2,1-d][1,2,5]thiadiazepin-6(7H)-yl)methyl)-4-methylphenyl)-3-(1-ethyl-4-methyl-1H-benzo[d][1,2,3]triazol-5-yl)propanoic Acid] | 28 nM | 0.273 nM
Cc1ccc([C@H](CC(=O)O)c2ccn3c(C(F)(F)F)nnc3c2C)cc1CN1C[C@@H]2CCCCN2c2ncc(Cl)cc2S1(=O)=O (single isomer, unassigned) [Example 192, (*S)-3-(3-(((*S)-3-Chloro-5,5-dioxido-7,7a,8,9,10,11-hexahydro-6H-dipyrido[2,1-d:2′,3′-f][1,2,5]thiadiazepin-6-yl)methyl)-4-methylphenyl)-3-(8-methyl-3-(trifluoromethyl)-[1,2,4]triazolo[4,3-a]pyridin-7-yl)propanoic Acid] | 1.4 nM | < 1 nM
Cc1ccc(C(CC(=O)O)c2ccn3c(C(F)F)nnc3c2C)cc1CN1CC2(CC2)Oc2ncccc2S1(=O)=O (stereo not drawn) [Example 472, 3-(3-(Difluoromethyl)-8-methyl-[1,2,4]triazolo[4,3-a]pyridin-7-yl)-3-(3-((1′,1′-dioxidospiro[cyclopropane-1,4′-pyrido[2,3-b][1,4,5]oxathiazepin]-2′(3′H)-yl)methyl)-4-methylphenyl)propanoic Acid] | 245 nM | < 1 nM
Cc1cnc2c(c1)S(=O)(=O)N(Cc1cc([C@H](c3ccn4c(C(F)F)nnc4c3C)C(C)(C)C(=O)O)ccc1C)CC1(CC1)O2 (single isomer, unassigned) [Example 561, (*R)-3-(3-(Difluoromethyl)-8-methyl-[1,2,4]triazolo[4,3-a]pyridin-7-yl)-2,2-dimethyl-3-(4-methyl-3-((8′-methyl-1′,1′-dioxidospiro[cyclopropane-1,4′-pyrido[2,3-b][1,4,5]oxathiazepin]-2′(3′H)-yl)methyl)phenyl)propanoic Acid] | 258 nM | 52.5 nM
